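Exposure lasted 48 hours, with cells grown in 96-well plates and compounds tested at five concentrations. At the TGI there is no net growth.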

Among the test systems are A498 renal; NCI-H23 lung; NCI/ADR-RES ovarian; 786-0 renal; HOP-62 NSCLC; SK-MEL-28 melanoma; M14 melanoma; COLO 205 colon; A549 NSCLC; NCI-H460 lung; HL-60(TB) leukemia; HS 578T breast; U251 CNS; OVCAR-8 ovarian; SNB-75 CNS.
Assay in all cases: growth of human tumour cells (NCI), 48 h

For the compound `O=C(Nc1ccccc1)N1CC(CN2CCN(c3ccccc3)CC2)OC1=O` (stereo unspecified), the TGI in the test with A498 renal, in the test on NCI-H23 lung, in the test with NCI/ADR-RES ovarian, with 786-0 renal, in the test on HOP-62 NSCLC and with SK-MEL-28 melanoma was > 100 µM throughout. Further, the TGI with M14 melanoma, in the test on COLO 205 colon, in the test with A549 NSCLC, in the test on NCI-H460 lung, in the test on HL-60(TB) leukemia and in the test on HS 578T breast was > 100 µM in each case. Further, the TGI in the test with U251 CNS is > 100 µM.
With `COc1cc(C(CN)N(C)C)cc(OC)c1OC` (stereo unspecified), the TGI in the test with A498 renal, in the test with NCI-H23 lung, in the test on NCI/ADR-RES ovarian, with 786-0 renal, in the test with HOP-62 NSCLC and with SK-MEL-28 melanoma was > 100 µM throughout. Besides, the TGI in the test with M14 melanoma, in the test with COLO 205 colon, in the test with A549 NSCLC, in the test on NCI-H460 lung, in the test on HL-60(TB) leukemia and in the test with HS 578T breast was > 100 µM in each case. Further, the TGI in the test on U251 CNS and with OVCAR-8 ovarian was > 100 µM in each case.
In the case of `CNC(=O)OC(C)CN1c2ccccc2Sc2ccccc21` (stereo unspecified), the TGI with A498 renal, with NCI-H23 lung, in the test with NCI/ADR-RES ovarian, with 786-0 renal, in the test on HOP-62 NSCLC and in the test with SK-MEL-28 melanoma was > 100 µM throughout. Also, the TGI with M14 melanoma, with COLO 205 colon, in the test with A549 NSCLC, with NCI-H460 lung, in the test with HL-60(TB) leukemia and with HS 578T breast was > 100 µM throughout. Also, the TGI in the test with U251 CNS and in the test with OVCAR-8 ovarian was > 100 µM in each case.
For the compound `O=C1c2ccccc2C(=O)c2[nH]c(=O)c(/C=N/Nc3ccc([N+](=O)[O-])cc3)nc21`, the TGI in the test with A498 renal was 14.2 µM; with NCI-H23 lung, 3.79 µM; in the test with NCI/ADR-RES ovarian, > 61.6 µM; with 786-0 renal it was > 62.2 µM; with HOP-62 NSCLC, > 21.3 µM; in the test with SK-MEL-28 melanoma, > 30.5 µM. Besides, the TGI in the test on M14 melanoma was 5.01 µM; in the test with COLO 205 colon, 75.6 µM; with A549 NSCLC, > 100 µM; in the test on NCI-H460 lung it was 4.18 µM; in the test with HS 578T breast, 21.1 µM; with U251 CNS, > 37.6 µM. Moreover, the TGI in the test on OVCAR-8 ovarian is > 50.7 µM.
For `O=C1CC(CC(O)C(O)CO)CC(=O)N1` (stereo unspecified), the TGI with A498 renal, with NCI-H23 lung, in the test with NCI/ADR-RES ovarian, with 786-0 renal, in the test on HOP-62 NSCLC and in the test with SK-MEL-28 melanoma was > 100 µM each time. Also, the TGI in the test on M14 melanoma, in the test with A549 NSCLC, with NCI-H460 lung, with HL-60(TB) leukemia, in the test on HS 578T breast and with U251 CNS was > 100 µM each time. Also, the TGI in the test with OVCAR-8 ovarian was > 100 µM.
On to `CN(C)CCCNC(=O)c1cc(NC(=O)CCCn2c3ccccc3c3ccccc32)cn1C`, for which the TGI with A498 renal is 71.3 µM; with NCI-H23 lung it was > 100 µM; with NCI/ADR-RES ovarian, > 100 µM; with 786-0 renal, > 100 µM; with HOP-62 NSCLC it was > 100 µM; in the test on SK-MEL-28 melanoma it was > 100 µM. The TGI with M14 melanoma is > 100 µM; in the test with COLO 205 colon, 59.8 µM; in the test with A549 NSCLC, > 100 µM; with NCI-H460 lung, > 100 µM; in the test on HL-60(TB) leukemia, > 100 µM; in the test with SNB-75 CNS it was > 100 µM. Further, the TGI in the test with U251 CNS and in the test on OVCAR-8 ovarian was > 100 µM each time.
Take `CCOC(=O)C1=C(C)N(Cc2ccc(Cl)cc2Cl)C2(O)C(OC)CC(=O)C3C(=O)N(c4ccccc4)C(=O)C132` (stereo unspecified): the TGI in the test with A498 renal stood at 22.7 µM; with NCI-H23 lung, 15.7 µM; in the test on NCI/ADR-RES ovarian, 7.63 µM; in the test on 786-0 renal, 4.11 µM; in the test on HOP-62 NSCLC, 2.51 µM; in the test with SK-MEL-28 melanoma, 4.37 µM. In addition, the TGI in the test with M14 melanoma was 13.5 µM; with COLO 205 colon, 13.4 µM; with A549 NSCLC it was 12.4 µM; with NCI-H460 lung, 12.5 µM; in the test with HL-60(TB) leukemia, 6.9 µM; in the test on HS 578T breast it was 92.8 µM. The TGI in the test with U251 CNS worked out at 3.69 µM; in the test with OVCAR-8 ovarian, 6.19 µM.
For `N#CC1(C#N)C(c2ccccc2)NC23CCCCC2C1(C#N)C(=O)N3` (stereo unspecified), the TGI in the test on A498 renal, in the test with NCI-H23 lung, in the test on NCI/ADR-RES ovarian, in the test on 786-0 renal, in the test on HOP-62 NSCLC and in the test with SK-MEL-28 melanoma was > 100 µM throughout. For the same compound, the TGI with M14 melanoma, in the test on COLO 205 colon, in the test with A549 NSCLC, in the test on NCI-H460 lung, in the test with SNB-75 CNS and with U251 CNS was > 100 µM each time. Moreover, in the test with OVCAR-8 ovarian, the TGI was > 100 µM.
`S=C(NNC1=NCCCCN1)Nc1ccccc1`: the TGI in the test with A498 renal, with NCI-H23 lung, with NCI/ADR-RES ovarian, in the test with 786-0 renal, with HOP-62 NSCLC and in the test on SK-MEL-28 melanoma was > 100 µM throughout. The TGI in the test with M14 melanoma, in the test on COLO 205 colon, in the test with A549 NSCLC, in the test on NCI-H460 lung, in the test on HL-60(TB) leukemia and in the test with SNB-75 CNS was > 100 µM throughout. Moreover, the TGI with U251 CNS and with OVCAR-8 ovarian was > 100 µM in each case.
In the case of `Cc1nnc2nc(-c3ccc(Cl)cc3Cl)cc(-c3ccc(Cl)cc3)n12`, the TGI is > 100 µM with NCI-H23 lung; > 100 µM with NCI/ADR-RES ovarian; > 100 µM in the test on 786-0 renal; > 100 µM with HOP-62 NSCLC; 40.8 µM in the test on SK-MEL-28 melanoma; > 100 µM with M14 melanoma. The TGI is 49.6 µM in the test with COLO 205 colon; > 100 µM in the test on A549 NSCLC; > 100 µM with NCI-H460 lung; > 100 µM with HL-60(TB) leukemia; > 100 µM in the test on HS 578T breast; > 100 µM in the test with U251 CNS. Moreover, in the test on OVCAR-8 ovarian, the TGI is > 100 µM.
Consider `Nc1nonc1-c1noc(-c2nonc2N)[n+]1[O-]`, for which the TGI in the test with A498 renal, in the test on NCI-H23 lung, with NCI/ADR-RES ovarian, with 786-0 renal, with HOP-62 NSCLC and with SK-MEL-28 melanoma was > 100 µM each time. In addition, the TGI is > 100 µM in the test with M14 melanoma; 90.7 µM with A549 NSCLC; > 100 µM in the test on NCI-H460 lung; > 100 µM in the test with HS 578T breast; > 100 µM with U251 CNS.

For the origin of these results see PubChem BioAssay (NCI).
